The target in the assay is interaction between cTnC and switch peptide of cTnI (cTnISP) (Homo sapiens, UniProt P63316). Put plainly: Fluorescence polarization HTS and dose-response, cTnC/FAM-cTnISP. The format is binding.
The mark [1] stands for this setting: cTnISP primary screen, TOCRIScreen library, single concentration 50 μmol/L.
The mark [2] stands for this setting: cTnISP primary screen, ENZO Screenwell library, single concentration 50 μmol/L.
Where [3] appears, read: cTnISP primary screen, LOPAC 1280 library, single concentration 50 μmol/L.

Values joined by “and” are separate entries in the source; they are usually repeats but may differ in a detail not shown here. Equal entries are not always repeated. Structures can show the parent of a compound that is named as a salt. Where two headings read alike, the source gives them in different places.

On to `CCN(CC)CCOc1ccc(Nc2ncc3cc(-c4c(Cl)cccc4Cl)c(=O)n(C)c3n2)cc1.Cl.Cl` [PD 166285 dihydrochloride], for which the “FP (mP)” value under setting [1] came to 78.7 mP.

For `COc1ccc(Cl)cc1NC(=O)Nc1cc(C)nc2ccccc12` [PQ 401], the “FP (mP)” value under setting [1] is given as 80.2 mP.

Turning to `O=C(Nc1cc(C(F)(F)F)cc(C(F)(F)F)c1)c1cnc(Cl)nc1C(F)(F)F` [SP 100030], the “FP (mP)” value under setting [1] is 70.3 mP.

As for `Cn1c(NC[C@@H](N)Cc2ccccc2)nc(-c2ccncc2)c(-c2ccc3ccccc3c2)c1=O` [AMG 548], under setting [1], the “FP (mP)” value turned out to be 90 mP.

Take `CC(C)(Cc1ccc2ccccc2c1)NC[C@@H](O)COc1cccc(Cl)c1C#N.Cl` [NPS 2143 hydrochloride]: under setting [1], the “FP (mP)” value is listed as 87.5 mP.

Take `O=C(c1ccc(Nc2nccc(-c3cc4ccccc4s3)n2)cc1)N1CCC(N2CCCC2)CC1` [IKK 16]: the “FP (mP)” value under setting [1] was 82 mP.

Turning to `OCCNC1CCCc2c1[nH]c1ccc(-c3ccccc3)cc21` (stereo not shown) [CASIN], the “FP (mP)” value under setting [1] stood at 80.4 mP.

With `CCCc1cc(C)[nH]c(=O)c1CNC(=O)c1cc(-c2ccc(N3CCN(C(C)C)CC3)nc2)cc2c1cnn2C(C)C` [UNC 1999], the “FP (mP)” value under setting [1] was 80.5 mP.

With `COc1cc(C(=O)NC2CCN(C)CC2)ccc1Nc1ncc2c(n1)N(C1CCCC1)CC(F)(F)C(=O)N2C` [Ro 3280], the “FP (mP)” value under setting [1] came out at 81.8 mP.

Consider `COc1cc2nc(N3CCC(N4CCCCC4)CC3)nc(NC3CCCCCC3)c2cc1OC.Cl.Cl` [C 021 dihydrochloride], for which, under setting [1], the “FP (mP)” value was 87.1 mP.

As for `CCCNc1ccc2ncc(-c3ccc4[nH]ncc4c3)n2n1.O=C(O)C(F)(F)F` [CHR 6494 trifluoroacetate], the “FP (mP)” value under setting [1] was determined as 81.9 mP.

Turning to `CCn1c(=O)c(-c2ccc(Cl)cc2Cl)cc2cnc(Nc3ccc(N4CCNCC4)c(F)c3)nc21` [FRAX 486], the “FP (mP)” value under setting [1] was found to be 83.2 mP.

Turning to `Clc1ccc(C(Cn2ccnc2)OCc2csc3c(Cl)cccc23)c(Cl)c1` (stereo not shown) [Sertaconazole], under setting [2], the “FP (mP)” value stood at 88.2 mP.

With `CCN1CCN(Cc2ccc(-c3cc4c(N[C@H](C)c5ccccc5)ncnc4[nH]3)cc2)CC1` [AEE 788], the “FP (mP)” value under setting [1] is reported as 77.8 mP.

On to `Br.Cc1cc2nc(NCCCO)n(CC(=O)c3cc(C(C)(C)C)c(O)c(C(C)(C)C)c3)c2cc1C` [CID2858522], for which the “FP (mP)” value under setting [3] was 89.6 mP.

As for `O=[N+]([O-])c1ccc(CNc2nc(NCc3cccc(C(F)(F)F)c3)nc3nc[nH]c23)cc1` [TNP], the “FP (mP)” value is recorded as 90.9 mP.

As for `C[C@@H](NCCCc1cccc(C(F)(F)F)c1)c1cccc2ccccc12` [Cinacalcet.HCl], the “FP (mP)” value under setting [2] turned out to be 82.4 mP.

Take `CCOC(=O)c1c(CSc2ccccc2)n(C)c2cc(Br)c(O)c(CN(C)C)c12.Cl` [Arbidol hydrochloride]: under setting [3], the “FP (mP)” value worked out at 89.4 mP.

In the case of `OCCN1CCN(CCCN2c3ccccc3Sc3ccc(C(F)(F)F)cc32)CC1` [Fluphenazine.HCl], the “FP (mP)” value under setting [2] worked out at 76.1 mP.

For the compound `CCN(CC)CCOc1ccc(C(=C(Cl)c2ccccc2)c2ccccc2)cc1` [Clomiphene Citrate], the “FP (mP)” value under setting [2] was 63.2 mP.

Regarding `CSc1ccc2c(c1)C(N1CCN(C)CC1)Cc1ccccc1S2` (stereo not shown) [Methiothepin mesylate], under setting [3], the “FP (mP)” value is given as 86.5 mP.

Turning to BMS-189453, under setting [3], the “FP (mP)” value was found to be 88.8 mP.

On to `CS(=O)(=O)O.c1cc2c(cc1C1CCCCC1)c1c3n2CCNC3CCC1` (stereo not shown) [Tetrindole mesylate], for which the “FP (mP)” value under setting [1] is reported as 65 mP.

On to `COc1ccc(CCN(C)CCCOc2ccc(S(=O)(=O)c3c(C(C)C)c4ccccc4n3C)cc2)cc1OC.O=C(O)C(=O)O` [SR 33805 oxalate], for which, under setting [1], the “FP (mP)” value came to 79 mP.

In the case of `CN1CCN(CCCN2c3ccccc3Sc3ccc(C(F)(F)F)cc32)CC1` [Trifluoperazine dihydrochloride], the “FP (mP)” value under setting [3] was found to be 84.5 mP.

As to `OCCN1CCN(CCCN2c3ccccc3Sc3ccc(C(F)(F)F)cc32)CC1` [Fluphenazine dihydrochloride], the “FP (mP)” value under setting [3] came to 87.3 mP.

Take `CC(C)/N=c1\cc2n(-c3ccc(Cl)cc3)c3ccccc3nc-2cc1Nc1ccc(Cl)cc1` [Clofazimine]: under setting [2], the “FP (mP)” value is on record as 85.2 mP.

In the case of `COC(=O)[C@H]1[C@H]2C[C@@H]3c4[nH]c5cc(OC)ccc5c4CCN3C[C@H]2C[C@@H](OC(=O)c2cc(OC)c(OC)c(OC)c2)[C@@H]1OC` [Reserpine], the “FP (mP)” value under setting [2] is reported as 88.4 mP.

In the case of `COc1cc(C(=O)NC2CCN(C)CC2)c(F)cc1Nc1ncc2c(n1)N(C1CCCC1)CC(F)(F)C(=O)N2C.Cl` [TAK 960 hydrochloride], the “FP (mP)” value under setting [1] stood at 88 mP.

As for `Nc1ncnc2c1c(-c1cccc(OCc3ccccc3)c1)cn2C1CC(CN2CCCC2)C1` (stereo not shown) [NVP ADW 742], the “FP (mP)” value under setting [1] is listed as 68.4 mP.

Consider `CSc1ccc2c(c1)N(CCC1CCCCN1C)c1ccccc1S2` (stereo not shown) [Thioridazine.HCl], for which the “FP (mP)” value under setting [2] is 74.3 mP and the “FP (mP)” value under setting [3] was 89.4 mP.

On to `CCOc1cc(C(=O)N2CCC(N3CCN(C)CC3)CC2)ccc1Nc1ncc2c(n1)N(C1CCCC1)c1ccccc1C(=O)N2C` [ERK5-IN-1], for which, under setting [1], the “FP (mP)” value came out at 64.9 mP.

On to `Cc1cc(N2C[C@@H](C)N[C@@H](C)C2)ncc1-c1ccc(-c2nc3c(ccn3C)c(=O)[nH]2)cc1` [AZ 6102], for which the “FP (mP)” value under setting [1] turned out to be 83.4 mP.

For the compound `c1ccc(Cn2c(-c3ccc(OC[C@H](C4CCNCC4)n4c(-c5ccccc5)nc5ccccc54)cc3)nc3ccccc32)cc1` [Deltarasin], under setting [1], the “FP (mP)” value turned out to be 87.7 mP.

Take `Cc1nc(Nc2cnn(C3CCNCC3)c2)nc2c1N(C)C(=O)c1cc3ccccc3cc1N2C` [HTH 01-015]: the “FP (mP)” value runs as follows: under setting [3], 87 mP; under setting [1], 87.1 mP.

With `CC(C)c1cnn2c(NCc3ccccc3)cc(NCCCCCCN)nc12.Cl.Cl` [BS 181 dihydrochloride], the “FP (mP)” value under setting [1] came to 73.2 mP.

As to `CN(C)CCCN1c2ccccc2Sc2ccc(Cl)cc21` [Chlorpromazine.HCl], the “FP (mP)” value runs as follows: under setting [2], 88.9 mP; under setting [3], 91.3 mP.

On to `COc1cc(N2CCN(C)CC2)ccc1Nc1ncc2c(n1)N(C)c1ccccc1C(=O)N2` [XMD 8-87], for which the “FP (mP)” value under setting [1] was 81.2 mP.

`CCN1CCN(Cc2ccc(C(=O)Nc3ccc(C)c(Oc4ccc5c(c4)CC(=O)N5)c3)cc2C(F)(F)F)CC1.Cl.Cl` [DDR1-IN-1 dihydrochloride]: the “FP (mP)” value under setting [1] is on record as 74.4 mP.

For `O=C1CCc2ccc(OCCCCN3CCN(c4cccc(Cl)c4Cl)CC3)cc2N1` [Aripiprazole], the “FP (mP)” value under setting [1] came out at 86 mP.

Take `NCCOc1cc(C(=O)Nc2cc(OCCN)c3ccccc3n2)nc(C(=O)Nc2cc(OCCN)c3ccccc3n2)c1` [Pyridostatin trifluoroacetate salt]: under setting [3], the “FP (mP)” value came out at 85.6 mP.

Take (S)-(+)-Niguldipine hydrochloride: the “FP (mP)” value stood at 85.7 mP.

As to `CCOc1cc2ncc(C#N)c(Nc3ccc(OCc4cccc(F)c4)c(Cl)c3)c2cc1NC(=O)/C=C/CN(C)C` [HKI 357], the “FP (mP)” value under setting [1] was 73.4 mP.

Consider `Cc1cc(CN)cc(C)c1NC(=O)c1ccc(-c2cc(Cl)ccc2Cl)o1` [CYM50358], for which the “FP (mP)” value under setting [3] is on record as 84.1 mP.

`Cc1c(-c2ccc(O)cc2)n(Cc2ccc(OCCN3CCCCCC3)cc2)c2ccc(O)cc12` [Bazedoxifene acetate]: under setting [1], the “FP (mP)” value was 74.5 mP.

As for `COc1cc(N2CCN(C)CC2)ccc1Nc1nccc(-c2cn(C)c3cnccc23)n1` [AZ 191], the “FP (mP)” value reads like this: under setting [3], 88.5 mP; under setting [1], 83.4 mP.

As for `Cc1c2ccncc2c(C)c2c1[nH]c1ccccc12` [Ellipticine], the “FP (mP)” value under setting [3] is reported as 86.1 mP.

As to `CCCCCCCCCCCCCCCC(=O)OC(CC(=O)O)C[N+](C)(C)C.[Cl-]` (racemic) [Palmitoyl-DL-Carnitine chloride], the “FP (mP)” value under setting [3] was found to be 109.8 mP.

`CCC(=O)Nc1cccc(Oc2nc(Nc3ccc(N4CCN(C)CC4)cc3OC)ncc2Cl)c1` [WZ4003]: the “FP (mP)” value under setting [3] stood at 86.4 mP.

With `N[C@@H](Cc1cc(I)c(Oc2cc(I)c(O)c(I)c2)c(I)c1)C(=O)[O-].[Na+]` [Levothyroxine·Na], the “FP (mP)” value under setting [2] is listed as 119.8 mP.

As to `CC/C(=C(\c1ccccc1)c1ccc(OCCN(C)C)cc1)c1ccccc1` [Tamoxifen Citrate], the “FP (mP)” value reads like this: under setting [2], 69.1 mP; under setting [1], 62.2 mP.

Turning to `CCN(CC)CCOc1ccc(/C(=C(/Cl)c2ccccc2)c2ccccc2)cc1.Cl` [Enclomiphene hydrochloride], under setting [3], the “FP (mP)” value came to 78.4 mP.

Turning to `Cc1cc(CN2CCN(c3c(Br)cnc4nc(-c5ccc(N6CCN(C)CC6)cc5)[nH]c34)CC2)no1` [CCT 137690], the “FP (mP)” value under setting [3] is 87 mP and the “FP (mP)” value under setting [1] is listed as 83.6 mP.

As to `CC(C)[C@H]1c2ccc(F)cc2CC[C@@]1(CCN(C)CCCc1nc2ccccc2[nH]1)OC(=O)C1CC1` [NNC 55-0396], the “FP (mP)” value under setting [3] is on record as 88.7 mP.

In the case of `O=C(c1ccc(OCCN2CCCCC2)cc1)c1c(-c2ccc(O)cc2)sc2cc(O)ccc12` [Raloxifene.HCl], the “FP (mP)” value is 76.9 mP under setting [2]; 85.5 mP under setting [3]; 87.9 mP and 82.1 mP (cTnISP primary screen, TOCRIScreen library, single concentration 50 μmol/L, listed as Raloxifene hydrochloride).

With `OCCN1CCN(CCCN2c3ccccc3Sc3ccc(Cl)cc32)CC1` [Perphenazine], the “FP (mP)” value under setting [2] is 73.2 mP.

For the compound `Cc1[nH]c(/C=C2\C(=O)Nc3ccc(S(=O)(=O)N(C)c4cccc(Cl)c4)cc32)c(C)c1C(=O)N1CCN(C)CC1` [SU 11274], the “FP (mP)” value under setting [1] came to 64.5 mP.

As for `CN(C(=O)CN1C(=O)COc2cc(Cl)c(Cl)cc21)[C@@H](CN1CCCC1)c1ccc(-c2cccc(C(N)=O)c2)cc1.Cl` [GSK 1562590 hydrochloride], under setting [1], the “FP (mP)” value stood at 89.9 mP.

With `Cn1cc(-c2[nH]c3cc(NC(=O)[C@H](N)C4CCCCC4)cc4c3c2C=NNC4=O)cn1` [PF 477736], under setting [1], the “FP (mP)” value is on record as 64 mP.

Turning to `Cc1c(NC(=O)OC[C@@H]2COCCN2)cn2ncnc(Nc3ccc4c(cnn4Cc4cccc(F)c4)c3)c12.Cl.Cl` [BMS 599626 dihydrochloride], under setting [1], the “FP (mP)” value worked out at 88.2 mP.

On to `OCCN1CCN(CC/C=C2/c3ccccc3Sc3ccc(C(F)(F)F)cc32)CC1` [cis-(Z)-Flupenthixol dihydrochloride], for which, under setting [3], the “FP (mP)” value was 87.6 mP.

In the case of `c1ccc2cc(-c3ncc[nH]3)ccc2c1` [Benazoline oxalate], under setting [3], the “FP (mP)” value is on record as 83.7 mP.

The values are drawn from article PMC10063609, “Discovery of novel cardiac troponin activators using fluorescence polarization-based high throughput screening assays” (Scientific Reports, 2023).
